# Experimental data: patent US20040044006A1, “Methods of use of quinolone compounds against pneumococcal and haemophilus bacteria” (priority 1999, published 2004)
# Read-outs that look alike come from different tables or passages of the source.
# Key:
# [1] = tested on: penicillin susceptible and resistant pneumococcal strains (2 quinolone resistant); experiment: Time-kill testing of 12 pneumococcal strains; format: cell-based, Streptococcus pneumoniae; conditions: 12 penicillin susceptible and resistant pneumococcal strains; 24 h; bactericidal = ≧3 log10 cfu/ml (99.9%) reduction
# Experimental: For time-kill studies, glass tubes containing 5 ml cation-adjusted Mueller-Hinton broth (Difco)+5% lysed horse blood with doubling antibiotic concentrations were inoculated with 5×10^5 to 5×10^6 cfu/ml and incubated at 35° C. in a shaking water bath. […] Growth controls with inoculum but no antibiotic were included with each experiment (Pankuch, et al., Antimicrob. Agents Chemother. 38:2065-2072, 1994; Pankuch, et al., Antimicrob. Agents Chemother. 40:1653-1656, 1996).
# Lysed horse blood was prepared as described previously. The bacterial inoculum was prepared by diluting a 16 h broth (medium as above) culture in the same medium. Dilutions required to obtain the correct inoculum (5×10^5-5×10^6 cfu/ml) were determined by prior viability studies using each strain (Pankuch, et al., Antimicrob. Agents Chemother. 38:2065-2072, 1994; Pankuch, et al., Antimicrob. Agents Chemother. 40: 1653-1656, 1996).
# To inoculate each tube of serially diluted antibiotic, 50 μl of diluted inoculum was delivered by pipette beneath the surface of the broth. Tubes were then vortexed and plated for viability counts within 10 min (approximately 0.2 h). The original inoculum was determined by using the untreated growth control. Only tubes containing an initial inoculum within the range of 5×10^5 to 5×10^6 cfu/ml were acceptable (Pankuch, et al., Antimicrob. Agents Chemother. 38:2065-2072, 1994; Pankuch, et al., Antimicrob. Agents Chemother. 40:1653-1656, 1996).
# Viability counts of antibiotic-containing suspensions were performed by plating ten-fold dilutions of 0.1 ml aliquots from each tube in sterile Mueller-t-Hinton broth onto trypticase soy agar 5% sheep blood agar plates (BBL). Recovery plates were incubated for up to 72 h. Colony Counts were performed on plates yielding 30-300 colonies. The lower limit of sensitivity of colony counts was 300 cfu/ml (Pankuch, et al., Antimicrob. Agents Chemother. 38:2065-2072, 1994; Pankuch, et al., Antimicrob. Agents Chemother. 40:1653-1656, 1996).
# Time-kill assays were analysed by determining the number of strains which yielded a log10 cfu/ml of −1, −2 and −3 at 0, 3, 6, 12 and 24 h, compared to counts at time 0 h. Antimicrobials were considered bactericidal at the lowest concentration that reduced the original inoculum by ≧3 log10 cfu/ml (99.9%) at each of the time periods, and bacteriostatic if the inoculum was reduced by 0-3 log10 cfu/ml. […] The problem of bacterial carryover was addressed as described previously. For macrolide time-kill testing, only strains with MICs≦4.0 μg/ml were tested (Pankuch, et al., Antimicrob. Agents Chemother. 38:2065-9072, 1994; Pankuch, et al., Antimicrob. Agents Chemother. 40:1653-1656, 1996).
# [2] = tested on: quinolone susceptible pneumococci (ciprofloxacin MICs ≦4.0 μg/ml); experiment: Agar dilution MICs of 207 quinolone susceptible pneumococcal strains; format: cell-based, Streptococcus pneumoniae; conditions: Streptococcus pneumoniae, agar dilution; for MIC90: read-out: MIC90; for MIC: read-out: MIC range
# Experimental: All susceptible, and some intermediate and resistant strains, were recent U.S. isolates. The remainder of intermediate and resistant strains were isolated in South Africa, Spain, France, Central and Eastern Europe, and Korea. […] Additionally these strains were tested for mutations in parC, gyrA, parE, and gyrB (Pan, et al., Antimicrob. Agents Chemother. 40:2321-2326, 1996) and for efflux mechanism (Brenwald, et al., Antimicrob. Agents Chemother. 42:2032-2035, 1998). For time-kill studies, 4 penicillin susceptible, 4 intermediate and 4 resistant strains (2 quinolone resistant) were tested, while for PAE studies 5 quinolone susceptible and 1 resistant strains were studied.
# (§1) Agar dilution methodology was performed on 234 strains as described previously (M. R. Jacobs, Clin. Infect. Dis. 15:119-127, 1992; Jacobs, et al., Rev. Med. Microbiol. 6:77-93, 1995), using Mueller-Hinton agar (BBL Microbiology Systems, Cockeysville, Md.) supplemented with 5% sheep blood. Broth MICs for 12 strains tested by time-kill and 6 tested by PAE were performed according to NCCLS recommendations (Methods for Dilution Antimicrobial Susceptibility Tests for Bacteria that Grow Aerobically, 3rd Edition, NCCLS, Villanova, Pa.) using cation-adjusted Mueller-Hinton broth with 5% lysed defibrinated horse blood. Standard quality control strains, including Streptococcus pneumoniae ATCC 49619, were included in each run of agar and broth dilution MICs.
# pneumococcal strains = experiment: Microbroth dilution MICs of strains tested by time-kill and PAE; format: cell-based; conditions: Streptococcus pneumoniae, read-out: Microdilution MIC
# Experimental: as §1
# [3] = tested on: pneumococci (5 quinolone susceptible and 1 resistant strains); experiment: Post-antibiotic effect (PAE) testing; format: cell-based, Streptococcus pneumoniae; conditions: 10×MIC; range over strains
# Experimental: The post-antibiotic effect (PAE) (Craig, et al., V. Lorian (ed.) Antibiotics in Laboratory Medicine, Williams and Wilkins, Baltimore, pages 296-399, 1996) was determined by the viable plate count method, using Mueller-Hinton broth (MHB) supplemented with 5% lysed horse blood when testing pneumococci. […] Additionally, the one quinolone resistant strain was exposed at quinolone concentrations 5×MIC. Tubes containing 5 ml broth with antibiotic were inoculated with approximately 5×10^6 cfu/ml. Growth controls with inoculum but no antibiotic were included with each experiment. Tubes were placed in a shaking water bath at 35° C. for 1 h. At the end of the exposure period, cultures were diluted 1:1000 to remove antibiotic.
# Viability counts were determined before exposure and immediately after dilution (0 h), and then every 2 h until tube turbidity reached a #1 McFarland standard. Inocula were prepared by suspending growth from an overnight blood agar plate in broth. The broth was incubated at 35° C. for 2-4 h in a shaking water bath until turbidity matched a #1 McFarland standard, and checked for viability by plate counts (Spangler, et al., Antimicrob. Agents Chemother. 41:2173-9176, 1997; Spangler, et al., Antimicrob. Agents Chemother. 42:1253-1255, 1998).
# The PAE was defined as PAE=T-C; T=time required for viability counts of an antibiotic-exposed culture to increase by 1 log10 above counts immediately after dilution; C=corresponding time for growth control. For each experiment, viability counts (log10 cfu/ml) were plotted against time, and results expressed as the mean of two separate assays±S D (Craig, et al., V. Lorian (ed), Antibiotics in Laboratory Medicine, Williams and Wilkins, Baltimore, pages 296-329, 1996).
# [4] = strain 1 (S) penicillin susceptible
# [5] = strain 2 (S) penicillin susceptible
# [6] = strain 3 (S) penicillin susceptible, quinolone-resistant
# [7] = strain 4 (S) penicillin susceptible, quinolone-resistant
# [8] = strain 5 (I) penicillin intermediate
# [9] = strain 8 (I) penicillin intermediate
# [10] = strain 9 (R) penicillin resistant
# [11] = strain 11 (R) penicillin resistant
# [12] = strain 12 (R) penicillin resistant
MIC90 ([2]; Penicillin I strains),MIC ([2]; Penicillin I strains),MIC50 ([2]; Penicillin R strains),MIC90 ([2]; Penicillin R strains),MIC ([2]; Penicillin R strains),MIC50 ([2]; Penicillin S strains),MIC90 ([2]; Penicillin S strains),MIC ([2]; Penicillin S strains),Structure (SMILES),concentration at which bactericidal after 24 h [1],MIC (pneumococcal strains; [4]),MIC (pneumococcal strains; [5]),MIC (pneumococcal strains; [6]),MIC (pneumococcal strains; [7]),MIC (pneumococcal strains; [8]),MIC (pneumococcal strains; [9]),MIC (pneumococcal strains; [10]),MIC (pneumococcal strains; strain 10 (I)),MIC (pneumococcal strains; [11]),MIC (pneumococcal strains; [12]),PAE for non-quinolone compounds [3],also measured
1 µg/mL,0.016 to 4 µg/mL,2 µg/mL,4 µg/mL,0.5 to 8 µg/mL,0.016 µg/mL,0.06 µg/mL,0.008 to 0.25 µg/mL,"CC1(C)S[C@@H]2[C@H](NC(=O)[C@H](N)c3ccc(O)cc3)C(=O)N2[C@H]1C(=O)O [Amoxicillin, amoxicillin]",2 ×MIC,0.016 µg/mL,0.016 µg/mL,0.008 µg/mL,0.008 µg/mL,0.03 µg/mL,0.06 µg/mL,1 µg/mL,1 µg/mL,2 µg/mL,2 µg/mL,0.3 to 5.8 h,
2 µg/mL,0.125 to 8 µg/mL,8 µg/mL,16 µg/mL,0.5 to 32 µg/mL,0.03 µg/mL,0.25 µg/mL,0.008 to 2 µg/mL,"CO/N=C(\C(=O)N[C@@H]1C(=O)N2C(C(=O)O)=C(COC(N)=O)CS[C@H]12)c1ccco1 [Cefuroxime, cefuroxime]",4 ×MIC,0.5 µg/mL,0.25 µg/mL,0.016 µg/mL,0.016 µg/mL,0.5 µg/mL,0.25 µg/mL,2 µg/mL,0.5 µg/mL,4 µg/mL,2 µg/mL,0.8 to 2.9 h,MIC50 ([2]; Penicillin I strains): 0.5 µg/mL; MIC (pneumococcal strains; strain 6 (I) penicillin intermediate): 0.5 µg/mL; MIC (pneumococcal strains; strain 7 (I) penicillin intermediate): 0.5 µg/mL
